Experimental data reported in US5242938A, “Derivatives of virginiamycin M1” (Merck & Co., Inc., priority 1992, dated 1993).
≈ marks a conversion by molar mass, not a printed value. Read-outs that look alike come from different tables or passages of the source.

What was measured:
[1] = test system: Micrococcus luteus (Mb 1101, ATCC 9341); assay: Agar diffusion disc assay, Micr 1101; format: cell-based; details: Micrococcus luteus; for MIC: read-out: Agar Diffusion MIC versus Micrococcus luteus; for zone of inhibition at 10 µg/disc: 10.0 μg/disc
Method: (§1) Cultures employed in evaluating antimicrobial activity included plant pathogens, human and animal opportunistic pathogens and selected laboratory strains having specific-antibiotic sensitivities or chromosomal or R-plasmid-mediated resistances. […] The agar diffusion MIC's were determined using the method described by Barry in Anitbiotics in Laboratory Medicine, 2nd Ed., Ed. V. Lorian, pp. 1-63, William & Wilkins, Baltimore, 1986. Each test compound was dissolved in methanol to a concentration of 1 mg/ml. Serial dilutions of these compounds were also made to determine an agar diffusion MIC. 20 μl of each dilution was pipetted on to 6 mm paper discs, air dried and placed onto the surface of an agar plate seeded with the appropriate bacteria (~10^6 cfu). Seeded agar plates were incubated overnight (~18 hours) at 25° C. Zone sizes were measured to the nearest mm. Each compound was tested in triplicate and the results shown represent the mean.

[2] = test system: Corynebacterium pseudodiphtheriticum (Mb 261, ATCC 9742); assay: Agar diffusion disc assay, Cory 261; format: cell-based; details: Corynebacterium pseudodiphtheriticum, ATCC9742, 18 h; @ 20 g/disc; read-out: Inhibition zone diameter, Cory 261
Method: as §1

[3] = molecular target: T1, CCK-B (guinea pig cortex) (Cavia porcellus, UniProt H0VZC5); assay: [125I]BHCCK-8 radioligand binding, guinea pig cortical preparation; details: read-out: CCK binding inhibition - IC50, [125I]BHCCK
T1 construct: guinea pig cortical preparations; from tissue; host or cells: guinea pig brain cortex membranes
T1 sequence (H0VZC5 1-426): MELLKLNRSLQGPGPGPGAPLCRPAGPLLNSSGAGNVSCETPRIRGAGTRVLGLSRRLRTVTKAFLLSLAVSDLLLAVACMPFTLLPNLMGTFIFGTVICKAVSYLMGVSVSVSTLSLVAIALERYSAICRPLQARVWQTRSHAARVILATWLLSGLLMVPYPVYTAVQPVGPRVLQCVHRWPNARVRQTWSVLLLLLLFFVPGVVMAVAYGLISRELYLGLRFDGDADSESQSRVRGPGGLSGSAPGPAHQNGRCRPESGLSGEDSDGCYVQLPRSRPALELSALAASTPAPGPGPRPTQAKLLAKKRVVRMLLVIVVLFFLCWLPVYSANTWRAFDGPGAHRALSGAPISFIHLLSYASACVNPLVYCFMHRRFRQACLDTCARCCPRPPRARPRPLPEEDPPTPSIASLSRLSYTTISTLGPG
Method: (§2) The resulting supernatant was re-spun at 20,000×g for 20 minutes. […] Incubations were for 40 minutes at 4° C. and were terminated by filtration and washing with ice cold 100 mM saline. […] Incubations were for 30 minutes at room temperature and were terminated by filtration over GF/C filters and washing with 100 mM NaCl.

[4] = test system: Pseudomonas stutzeri (Mb 1231, ATCC 11607); assay: Agar diffusion disc assay, Pseu 1231; format: cell-based; details: Stutzerimonas stutzeri, ATCC11607, 18 h; @ 20 g/disc; read-out: Inhibition zone diameter, Pseu 1231
Method: as §1

[5] = test system: Staphylococcus aureus (Mb 2983); assay: Agar diffusion disc assay, Sta 2983; format: cell-based; details: Staphylococcus aureus, 18 h; @ 20 g/disc; read-out: Inhibition zone diameter, Sta 2983
Method: as §1

[6] = molecular target: T1, CCK-B (guinea pig cortex); assay: [3H]L-365,260 CCK-B selective antagonist ligand binding, brain membranes; details: for IC50: read-out: CCK binding inhibition - IC50, [3H]L-365,260
Method: as §2

CCK-A (rat pancreas) [7] = molecular target: T2, CCK-A (rat pancreas) (Rattus norvegicus, UniProt P30551); assay: [3H]L-364,718 CCK-A selective antagonist ligand binding, pancreas; details: read-out: CCK binding inhibition - IC50, [3H]L-364,718
T2 construct: from tissue; host or cells: rat pancreas
T2 sequence (P30551 1-444): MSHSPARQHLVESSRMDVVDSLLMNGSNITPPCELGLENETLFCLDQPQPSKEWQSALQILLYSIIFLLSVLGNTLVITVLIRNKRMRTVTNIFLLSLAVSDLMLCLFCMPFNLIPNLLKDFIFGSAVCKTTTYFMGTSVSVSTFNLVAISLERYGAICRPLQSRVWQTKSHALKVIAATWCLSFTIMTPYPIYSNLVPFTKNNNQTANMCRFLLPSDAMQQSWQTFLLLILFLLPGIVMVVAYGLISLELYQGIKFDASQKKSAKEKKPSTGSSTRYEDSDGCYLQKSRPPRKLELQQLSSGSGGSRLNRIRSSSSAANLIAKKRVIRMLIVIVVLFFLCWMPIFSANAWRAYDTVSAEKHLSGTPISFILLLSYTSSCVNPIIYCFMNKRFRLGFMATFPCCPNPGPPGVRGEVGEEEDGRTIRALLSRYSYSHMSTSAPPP
Method: as §2

[8] = test system: Streptococcus agalactiae (Mb 2875); assay: Agar diffusion disc assay, Str 2875; format: cell-based; details: Streptococcus agalactiae, 18 h; @ 20 g/disc; read-out: Inhibition zone diameter, Str 2875
Method: as §1

CCK-A (rat pancreas) [9] = molecular target: T2, CCK-A (rat pancreas); assay: [125I]BHCCK-8 radioligand binding, rat pancreatic preparation; details: read-out: CCK binding inhibition - IC50, [125I]BHCCK
Method: as §2

[10] = test system: Streptococcus faecium (Mb 2820); assay: Agar diffusion disc assay, Str 2820; format: cell-based; details: Enterococcus faecium, 18 h; @ 20 g/disc; read-out: Inhibition zone diameter, Str 2820
Method: as §1

[11] = test system: Escherichia coli (Mb 1418); assay: Agar diffusion disc assay, Coli 1418; format: cell-based; details: Escherichia coli, 18 h; @ 20 g/disc; read-out: Inhibition zone diameter, Coli 1418
Method: as §1

[12] = test system: Salmonella gallinarum (Mb 1287); assay: Agar diffusion disc assay, Salm 1287; format: cell-based; details: Salmonella enterica, GALLINARUM, 18 h; @ 20 g/disc; read-out: Inhibition zone diameter, Salm 1287
Method: as §1

[13] = test system: Bacillus subtilis (Mb 964, ATCC 6633); assay: Agar diffusion disc assay, Subt 964; format: cell-based; details: Bacillus subtilis, ATCC6633, 18 h; @ 20 g/disc; read-out: Inhibition zone diameter, Subt 964
Method: as §1

Bacillus sp. (Mb 633) = assay: Agar diffusion disc assay, Baci 633; format: cell-based; details: Bacillus, 18 h, @ 20 g/disc; read-out: Inhibition zone diameter, Baci 633
Method: as §1

[14] = test system: Staphylococcus aureus (Mb 108, ATCC 6538P); assay: Agar diffusion disc assay, Sta 108; format: cell-based; details: Staphylococcus aureus, ATCC6538P, 18 h; @ 20 g/disc; read-out: Inhibition zone diameter, Sta 108
Method: as §1

[15] = test system: En terobacter aergenes (Mb 835); assay: Agar diffusion disc assay, Ent 835; format: cell-based; details: 18 h; @ 20 g/disc; read-out: Inhibition zone diameter, Ent 835
Method: as §1

[16] = ATCC9341, 18 h, @ 20 g/disc, read-out: Inhibition zone diameter, Micr 1101
[17] = ATCC9341, 25° C., ~18 hours, read-out: Mean of triplicate zone size versus Micrococcus luteus
[18] = ATCC9341, 20.0 μg/disc, 25° C., ~18 hours, read-out: Mean of triplicate zone size versus Micrococcus luteus

Row | Compound | zone of inhibition at 20 µg/disc [1, 16] [mm] | MIC ([1]; ATCC9341, 18 h) [µM] | zone of inhibition at 10 µg/disc [1, 17] [mm] | zone of inhibition at 20 µg/disc [1, 18] [mm] | zone of inhibition at 20 µg/disc [2] [mm] | IC50 [3] [nM] | zone of inhibition at 20 µg/disc [4] [mm] | zone of inhibition at 20 µg/disc [5] [mm] | A.R. = agonist ratio = IC50([3H]L365,260)/IC50([125I]CCK) [6] | IC50 [6] [nM] | IC50 (CCK-A (rat pancreas) [7]) [µM] | zone of inhibition at 20 µg/disc [8] [mm] | IC50 (CCK-A (rat pancreas) [9]) [nM] | zone of inhibition at 20 µg/disc [10] [mm] | zone of inhibition at 20 µg/disc [11] [mm] | zone of inhibition at 20 µg/disc [12] [mm] | zone of inhibition at 20 µg/disc [13] [mm] | zone of inhibition at 20 µg/disc (Bacillus sp. (Mb 633)) [mm] | zone of inhibition at 20 µg/disc [14] [mm] | zone of inhibition at 20 µg/disc [15] [mm] | further results
1 | CC1=C\[C@@H](OC(=O)c2ccccc2)CC(=O)Cc2nc(co2)C(=O)N2CCC=C2C(=O)O[C@H](C(C)C)[C@H](C)/C=C/C(=O)NC\C=C\1 [Example 6] | 8 | 0.003 (≈ 0.00189 µg/mL) | 10 | 9 | 0 | 96 | 0 | 0 | 2 | 190 | > 3 | 0 | 2300 | 0 | 0 | 0 | 0 | 0 | 0 | 0 | zone of inhibition at 40 µg/disc ([1]; ATCC9341, 40.0 μg/disc, 25° C., ~18 hours, read-out: Mean of triplicate zone size versus Micrococcus luteus): 10 mm; zone of inhibition at 80 µg/disc ([1]; ATCC9341, 80.0 μg/disc, 25° C., ~18 hours, read-out: Mean of triplicate zone size versus Micrococcus luteus): 10 mm; zone of inhibition at 160 µg/disc ([1]; ATCC9341, 160 μg/disc, 25° C., ~18 hours, read-out: Mean of triplicate zone size versus Micrococcus luteus): 11 mm
2 | CNC(=O)O[C@@H]1/C=C(C)/C=C/CNC(=O)/C=C/[C@@H](C)[C@@H](C(C)C)OC(=O)C2=CCCN2C(=O)c2coc(n2)CC(=O)C1 [Example 7] | 27 | 1.74 (≈ 1.01 µg/mL) | 22 | 25 | 22 | 800 | 0 | 11 | 19 | > 3000 | > 3 | 16 | > 3000 | 10 | 0 | 0 | 0 | 7 | 19 | 0 | zone of inhibition at 1.25 µg/disc ([1]; ATCC9341, 1.25 μg/disc, 25° C., ~18 hours, read-out: Mean of triplicate zone size versus Micrococcus luteus): 8 mm; zone of inhibition at 2.5 µg/disc ([1]; ATCC9341, 2.50 μg/disc, 25° C., ~18 hours, read-out: Mean of triplicate zone size versus Micrococcus luteus): 13 mm; zone of inhibition at 5 µg/disc ([1]; ATCC9341, 5.00 μg/disc, 25° C., ~18 hours, read-out: Mean of triplicate zone size versus Micrococcus luteus): 18 mm; percentage in parentheses beside >3.0, [3H]L-365,260 (inhibition at top concentration, not defined) ([6]; beside IC50 >3.0): 14%
